In article PMC6037162 (Journal of the American Chemical Society, 2018):
Numbering of substitutions follows the chain as printed. Where “and” joins values, the source holds several entries; their conditions need not be identical. Equal entries are not always repeated.

How the values were obtained:
[1] = Acidity constants of ligands in water
[2] = test system: wildtype TIM; settings: compared with D-GAP; ref [30]; cited from earlier work
[3] = target: T1, I170A TbbTIM (Trypanosoma brucei brucei, UniProt P04789, I172A); assay: TIM-catalyzed isomerization of GAP; type: biochemical
[4] = ref [20]; cited from earlier work
[5] = target: T2, Y208F yTIM (Saccharomyces cerevisiae, UniProt P00942, Y208F); assay: TIM-catalyzed isomerization of GAP; type: biochemical, yeast
T2 sequence (P00942 1-248 Y208F): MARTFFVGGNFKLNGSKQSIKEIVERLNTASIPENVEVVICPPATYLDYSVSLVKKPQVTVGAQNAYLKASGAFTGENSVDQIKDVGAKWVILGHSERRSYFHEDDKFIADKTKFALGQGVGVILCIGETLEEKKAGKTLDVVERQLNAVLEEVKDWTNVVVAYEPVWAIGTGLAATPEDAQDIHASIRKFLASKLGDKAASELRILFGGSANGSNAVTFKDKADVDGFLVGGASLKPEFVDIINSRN

[6] = target: T1, I170A TbbTIM; settings: deprotonation of EH·I^3–; ref [14]; cited from earlier work
[7] = target: P166A TbbTIM (Trypanosoma brucei brucei, UniProt P04789, P168A); assay: TIM-catalyzed isomerization of GAP; type: biochemical; settings: difference to wildtype enzyme
[8] = target: mutant TIMs; assay: Binding of PGA trianion to mutant TIMs, summary of Table 1; type: biochemical; settings: read-out: (Ki)E; range over mutant TIMs
[9] = target: L7R cTIM (loop 7 replacement) (Gallus gallus, UniProt P00940, G210A/S211G/Y208T); assay: TIM-catalyzed isomerization of GAP; type: biochemical, chicken
[10] = target: T3, S211A yTIM (Saccharomyces cerevisiae, UniProt P00942, S211A); assay: TIM-catalyzed isomerization of GAP; type: biochemical, yeast
T3 sequence (P00942 1-248 S211A): T2 sequence (P00942 1-248 Y208F) with F208Y, S211A

[11] = Storage stability of PGA stock solutions; type: physicochemical; settings: solutions at pH 7.5 stored at −20 °C
[12] = test system: wildtype TIM; assay: Binding of PGA trianion to wildtype TIMs, summary of Table 1; type: biochemical
[13] = target: T4, wildtype TbbTIM (Trypanosoma brucei brucei, UniProt P04789); settings: pH profile linear through pH 9.7; ref [14]; cited from earlier work
[14] = target: wildtype cTIM (Gallus gallus, UniProt P00940); assay: TIM-catalyzed isomerization of GAP; type: biochemical, chicken; settings: deprotonation of EH·I^3–; estimated from (Ki)E·KEHI and (Ki)E
[15] = target: T4, wildtype TbbTIM; type: biochemical; settings: deprotonation of EH·I^3–; estimated from (Ki)E·KEHI and (Ki)E
[16] = (Ki)E, release of PGA trianion from E^–·I^3–, fit to eq 7
[17] = deprotonation of EH·I^3–, fit to eq 7

L7R cTIM (loop 7 replacement), sequence (P00940 whole entry Y208T/G210A/S211G): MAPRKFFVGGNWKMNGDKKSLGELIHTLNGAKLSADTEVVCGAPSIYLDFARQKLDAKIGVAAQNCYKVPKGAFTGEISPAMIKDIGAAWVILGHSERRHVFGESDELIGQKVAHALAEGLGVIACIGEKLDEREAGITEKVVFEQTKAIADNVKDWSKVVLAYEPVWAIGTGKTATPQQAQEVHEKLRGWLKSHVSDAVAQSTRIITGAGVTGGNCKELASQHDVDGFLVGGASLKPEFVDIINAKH
wildtype cTIM, sequence (P00940 whole entry): as the sequence (P00940 whole entry Y208T/G210A/S211G) above, with T208Y, A210G, G211S counted along it

Q: For `O=C[C@H](O)COP(=O)(O)O` [GAP, D-Glyceraldehyde 3-phosphate], which pKa [1] is on record?
A: The pKa was 6 ± 0.1.

Q: With `O=C[C@@H](O)COP(=O)(O)O` [L-GAP] as the molecule, how does the “binding to TIM” value [2] read?
A: Its value is “binds much more weakly to TIM than D-GAP”.

Q: For `O=C(O)COP(=O)(O)O` [PGA, 2-Phosphoglycolic acid], which Ki [3] is on record?
A: The Ki was 7.94 mM.

Q: What about the “Δ(pK)EHI” value ([3]; difference to wildtype enzyme) of the same molecule?
A: The value was 2.3.

Q: What about the “pKa for loss of a proton from PGA dianion to form PGA trianion” value [4] of the same molecule?
A: Its value is 6.3.

Q: What about the Ki [5, 16] of the same molecule?
A: Its Ki is 16 mM.

Q: What about the KEHI [5, 17] of the same molecule?
A: Its KEHI is 4.9 × 10^–7 M.

Q: What about the “Δ(pK)EHI” value ([5]; difference to wildtype enzyme) of the same molecule?
A: The value was 4.1.

Q: What about the Ki ([5]; log (Ki)E) of the same molecule?
A: The Ki was 15.8 mM.

Q: What about the KEHI [6] of the same molecule?
A: Its KEHI is 1.9 × 10^–8 M.

Q: And the “Δ(pK)EHI” value [7]?
A: The value was 0.7.

Q: And the Ki [8]?
A: The Ki was 3 to 30 mM.

Q: What about the Ki [9] of the same molecule?
A: The Ki was 2.6 mM.

Q: What about the KEHI [9, 17] of the same molecule?
A: Its KEHI is 1.8 × 10^–7 M.

Q: And the “Δ(pK)EHI” value ([9]; difference to wildtype enzyme)?
A: The value was 3.8.

Q: And the Ki [10, 16]?
A: The Ki was 20 mM and 24 mM.

Q: What about the “Δ(pK)EHI” value ([10]; difference to wildtype enzyme) of the same molecule?
A: Its value is 2.2.

Q: And the “stability toward hydrolysis of the phosphoryl group” value [11]?
A: The value was “at least 6 months”.

Q: What about the “binding energy for formation of E^–·I^3–” value ([12]; from (Ki)E) of the same molecule?
A: The value was 3 kcal/mol.

Q: What about the “binding energy of I^3– to EH” value ([12]; from (Ki)EH) of the same molecule?
A: The value was 11.1 to 11.8 kcal/mol.

Q: And the “pKEHI for release of a proton from the EH·I^3– complex” value [13]?
A: The value was greater than 10.

Q: What about the KEHI [14] of the same molecule?
A: Its KEHI is 2.9 × 10^–11 M.

Q: And the KEHI [15]?
A: The KEHI was 1.2 × 10^–11 M.
